Reference: patent EP0316117A1 (priority 1987, dated 1989)

Tests used:
Sendai virus = Sendai virus assay (method as described for Parainfluenza); type: cell-based; conditions: reduction in the virus titer compared to control
Parainfluenza virus = Parainfluenza virus pre-incubated with compound, grown in fertilized hen eggs, hemagglutination read-out; type: cell-based; design: key: -: undetectable; ++++: indicative of hemagglutination produced by virus grown under control conditions
Procedure: The effectiveness of certain novel compounds was tested against Parainfluenza virus which was grown in fertilized hen eggs as determined by the method of Haywood, J. of Mol. Biol., 83, 427 (1974). The virus was at titer of 10^5 to 10^6 was incubated in the presence of 10 ug/ml or 100 u^g/ml of one of the four compounds at 37° C for 2 hours. The mixtures of the virus and anti-viral compound were diluted to a final concentration of 10-^7 then injected into 9-day old fertilized hen eggs using 5 to 6 eggs for each dilution and incubated at 37° C for 48 hours. After the incubation period, a drop of amniotic fluid from the eggs was put on mirror-glass and mixed with 2% washed hen erythrocytes. Appearance of hemagglutination indicated the presence of virus in the egg. LDso was calculated from the results. The following Table 1 presents the results that were obtained. The virus concentrations ranged from -(undetectable) to + + + + (indicative of hemagglutination produced by virus grown under control conditions).

[1] = compound 100 µg/ml, Virus Concentrations 10
[2] = compound 100 µg/ml, Virus Concentrations 10^2
[3] = compound 100 µg/ml, Virus Concentrations 10^3

Substance	Virus Titer Reduction (Sendai virus; 1µg/ml)	Virus Titer Reduction (Sendai virus; 10µg/ml)	Virus Titer Reduction (Sendai virus; 50µg/ml)	Virus Titer Reduction (Sendai virus; 100µg/ml)	hemagglutination (presence of virus in the egg) (Parainfluenza virus; compound 10 µg/ml, Virus Concentrations 10)	hemagglutination (presence of virus in the egg) (Parainfluenza virus; compound 10 µg/ml, Virus Concentrations 10^2)	hemagglutination (presence of virus in the egg) (Parainfluenza virus; [1])	hemagglutination (presence of virus in the egg) (Parainfluenza virus; [2])	hemagglutination (presence of virus in the egg) (Parainfluenza virus; [3])	hemagglutination (presence of virus in the egg) (Parainfluenza virus; compound 10 µg/ml, Virus Concentrations 10^4)
4-N-Acetyl phosphatidylethanolamine [A-PE]	about 50%	ranged from 75-95%	ranged from 90-99%	100% (virus undetectable)						
5-Schiff Base of PE and Menadione (Vitamin K3) [PE-M]					-	-	-	-	-	
N-(1,1-dimethyl 3-oxybutyl phosphatidyl ethanolamine [DMOB-PE]	less than 10%	ranged from 75-99%	ranged from 90-93%	100% (virus undetectable)			-	-		++++
Phosphatidyl benzyl alcohol [P-BA]							-	-	-	
